Reference: US20120264735A1 (priority 2009, published 2012)

target: T1, c-Met kinase (recombinant c-Met) (Homo sapiens, UniProt P08581); assay: In vitro kinase assay I (homogeneous time-resolved fluorescence tyrosine kinase assay); assay type: biochemical
T1 construct: 0.27 nM recombinant c-Met
Protocol: The kinase activities of c-Met are measured using a modified version of the homogeneous-time-resolved tyrosine kinase assay described by Park et al. (1999, Anal. Biochem. 269:94-104).
The procedure for determining the potency of a compound to inhibit c-Met kinase comprises the following steps: • 1. Prepare 3-fold serial diluted compound solutions in 100% dimethyl sulfoxide (DMSO) at 20× of the desired final concentrations in a 384-well plate. • 2. Prepare a master reaction mix containing 6.67 mM MgCl2, 133.3 mM NaCl, 66.7 mM Tris-HCl (pH 7.4), 0.13 mg/ml BSA, 2.67 mM dithiothreitol, 0.27 nM recombinant c-Met and 666.7 nM biotinylated synthetic peptide substrate (biotin-ahx-EQEDEPEGDYFEWLE-CONH2) (SEQ.ID.NO.:1). • 3. In a black assay plate, add 1.5 μl of compound solution (or DMSO) and 22.5 μl of master reaction mix per well. Initiate the kinase reaction by adding 6 μl of 0.25 mM MgATP per well. Allow the reactions to proceed for 60 min at room temperature. The final conditions for the reaction are 0.2 nM c-Met, 0.5 μM substrate, 50 μM MgATP, 5 mM MgCl2, 100 mM NaCl, 2 mM DTT, 0.1 mg/ml BSA, 50 mM Tris (pH 7.4) and 5% DMSO. • 4. Stop the kinase reaction with 30 μl of Stop/Detection buffer containing 10 mM EDTA, 25 mM HEPES, 0.1% TRITON X-100, 0.750 nM Eu-chelate labeled anti-phosphotyrosine antibody PY20 (cat. #AD0067, PerkinElmer) and 50 μg/ml Streptavidin-allophycocyanin conjugate (cat. #PJ25S, Prozyme). • 5. Read HTRF signals on a Victor reader (PerkinElmer) in HTRF mode after 60-min incubation at room temperature in the dark. • 6. IC50 is determined by fitting the observed relationship between compound concentration and HTRF signal with a 4-parameter logistic equation. II. GTL-16 pY1349 Cell-Based Assay

T1 sequence (P08581 25-1390): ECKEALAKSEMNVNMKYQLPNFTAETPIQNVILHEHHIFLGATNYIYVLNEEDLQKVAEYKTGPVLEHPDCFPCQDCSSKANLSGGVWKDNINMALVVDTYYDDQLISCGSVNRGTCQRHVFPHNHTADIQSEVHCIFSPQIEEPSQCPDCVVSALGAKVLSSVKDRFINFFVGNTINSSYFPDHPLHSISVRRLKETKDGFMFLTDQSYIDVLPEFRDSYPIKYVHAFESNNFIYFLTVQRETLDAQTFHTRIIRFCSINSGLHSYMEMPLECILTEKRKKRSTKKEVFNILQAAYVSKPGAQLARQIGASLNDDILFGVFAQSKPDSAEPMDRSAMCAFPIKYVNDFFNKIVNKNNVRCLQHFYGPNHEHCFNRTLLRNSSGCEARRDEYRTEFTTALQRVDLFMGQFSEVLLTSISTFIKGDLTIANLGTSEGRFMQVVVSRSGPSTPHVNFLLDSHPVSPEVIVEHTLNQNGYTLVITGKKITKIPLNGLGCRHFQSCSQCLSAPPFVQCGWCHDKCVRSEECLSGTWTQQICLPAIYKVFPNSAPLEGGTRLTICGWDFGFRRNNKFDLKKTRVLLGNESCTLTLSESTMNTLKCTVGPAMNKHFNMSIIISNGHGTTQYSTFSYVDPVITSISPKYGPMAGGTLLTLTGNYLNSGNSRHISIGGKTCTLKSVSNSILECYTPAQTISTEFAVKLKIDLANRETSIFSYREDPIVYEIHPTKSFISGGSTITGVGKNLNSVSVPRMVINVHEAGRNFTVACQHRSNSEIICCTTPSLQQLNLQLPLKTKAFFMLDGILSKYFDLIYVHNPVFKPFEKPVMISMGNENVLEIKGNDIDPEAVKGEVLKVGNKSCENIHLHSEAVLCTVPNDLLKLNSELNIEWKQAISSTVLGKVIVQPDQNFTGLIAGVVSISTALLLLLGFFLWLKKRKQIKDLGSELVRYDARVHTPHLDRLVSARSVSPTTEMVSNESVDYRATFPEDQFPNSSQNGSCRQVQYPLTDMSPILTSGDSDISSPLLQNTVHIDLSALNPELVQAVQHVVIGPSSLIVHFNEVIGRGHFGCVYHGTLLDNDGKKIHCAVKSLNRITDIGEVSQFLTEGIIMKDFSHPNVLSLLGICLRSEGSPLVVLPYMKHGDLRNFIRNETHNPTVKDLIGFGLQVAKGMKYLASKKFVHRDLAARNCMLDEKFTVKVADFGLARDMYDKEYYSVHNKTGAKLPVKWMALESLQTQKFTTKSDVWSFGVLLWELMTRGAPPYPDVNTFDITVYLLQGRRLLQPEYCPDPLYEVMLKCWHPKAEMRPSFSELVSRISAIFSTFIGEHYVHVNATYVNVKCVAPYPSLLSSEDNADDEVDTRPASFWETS

Compound | IC50
CCOC(=O)Nc1cccc(Cc2nn(-c3cc(F)c(F)c(F)c3)ccc2=O)c1 [Example 2, Ethyl(3-{[4-oxo-1-(3,4,5-trifluorophenyl)-1,4-dihydropyridazin-3-yl]methyl}phenyl)carbamate] | < 100 nM
Cn1cc(-n2ccc(=O)c(Cc3cccc(NC(=O)OCCOC4CCCCC4)c3)n2)cn1 [Example 577, 2-(cyclohexyloxy)ethyl (3-{[1-(1-methyl-1H-pyrazol-4-yl)-4-oxo-1,4-dihydropyridazin-3-yl]methyl}phenyl)carbamate] | < 100 nM
CC(c1cccc(-c2ncc(OC3COC3)cn2)c1)c1nn(-c2cnn(C)c2)ccc1=O (single isomer, unassigned) [Example 215, 1-(1-methyl-1H-pyrazol-4-yl)-3-((1S or R)-1-{3-[5-(oxetan-3-yloxy)pyrimidin-2-yl]phenyl}ethyl)pyridazin-4(1H)-one] | 100 to 1000 nM
CC(C)Cc1cnc(-c2cccc(Cc3nn(-c4cnn(C)c4)ccc3=O)c2)nc1 [Example 394, 3-{3-[5-(2-methylpropyl)pyrimidin-2-yl)benzyl}-1-(1-methyl-1H-pyrazol-4-yl)pyridazin-4(1H)-one] | < 100 nM
CC(c1cccc(-c2ncc(OC3COC3)cn2)c1)c1nn(-c2cnn(C)c2)ccc1=O (single isomer, unassigned) [Example 216, 1-(1-methyl-1H-pyrazol-4-yl)-3-((1R or S)-1-{3-[5-(oxetan-3-yloxy)pyrimidin-2-yl]phenyl}ethyl)pyridazin-4(1H)-one] | < 100 nM
N#Cc1cccc(-n2ccc(=O)c(Cc3cccc(NC(=O)OCCN4CCCC4=O)c3)n2)c1 [Example 582, 2-(2-oxopyrrolidin-1-yl)ethyl (3-{[1-(3-cyanophenyl)-4-oxo-1,4-dihydropyridazin-3-yl]methyl}phenyl)carbamate] | < 100 nM
CCOC(=O)Nc1cccc(Cc2nn(-c3cnn(C)c3)ccc2=O)c1 [Example 1, Ethyl(3-{[1-(1-methyl-1H-pyrazol-4-yl)-4-oxo-1,4-dihydropyridazin-3-yl]methyl}phenyl)carbamate] | < 100 nM
CCOC(=O)Nc1cccc(Cc2nn(-c3cccc(Br)c3)ccc2=O)c1 [Example 13, ethyl (3-{[1-(3-bromophenyl)-4-oxo-1,4-dihydropyridazin-3-yl]methyl}phenyl)carbamate] | < 100 nM
COCc1cnc(-c2cccc(C(C)c3nn(-c4cnn(C)c4)ccc3=O)c2)nc1 (single isomer, unassigned) [Example 220, 3-((1R or S)-1-{3-[5-(methoxymethyl)pyrimidin-2-yl]phenyl}ethyl)-1-(1-methyl-1H-pyrazol-4-yl)pyridazin-4(1H)-one] | < 100 nM
O=C(Nc1cccc(Cc2nn(-c3cc(F)cc(F)c3)ccc2=O)c1)OCCCN1CCOCC1 [Example 521, 3-morpholin-4-ylpropyl (3-{[1-(3,5-difluorophenyl)-4-oxo-1,4-dihydropyridazin-3-yl]methyl}phenyl)carbamate] | < 100 nM
Cn1cc(-n2ccc(=O)c(Cc3cccc(NC(=O)OCC4(F)CCNCC4)c3)n2)cn1 [Example 620, (4-fluoropiperidin-4-yl)methyl (3-{[1-(1-methyl-1H-pyrazol-4-yl)-4-oxo-1,4-dihydropyridazin-3-yl]methyl}phenyl)carbamate] | < 100 nM
Cn1cc(-n2ccc(=O)c(Cc3cccc(-c4ncc(CCCO)cn4)c3)n2)cn1 [Example 395, 3-{3-[5-(3-hydroxypropyl)pyrimidin-2-yl]benzyl}-1-(1-methyl-1H-pyrazol-4-yl)pyridazin-4(1H)-one] | < 100 nM
N#Cc1cc(Cl)cc(-n2ccc(=O)c(Cc3cccc(NC(=O)OCC4CCOC4)c3)n2)c1 (racemic) [Example 141, rac-tetrahydrofuran-3-ylmethyl (3-{[1-(3-chloro-5-cyanophenyl)-4-oxo-1,4-dihydropyridazin-3-yl]methyl}phenyl)carbamate] | < 100 nM
COCCOc1cnc(-c2cccc(Cc3nn(-c4cccc(C#N)c4)ccc3=O)c2)nc1 [Example 319, 3-[3-{3-[5-(2-methoxyethoxy)pyrimidin-2-yl]benzyl}-4-oxopyridazin-1(4H)-yl]benzonitrile] | < 100 nM
CCOc1cnc(-c2cccc(Cc3nn(-c4ccc(C(=O)NCCO)c(F)c4)ccc3=O)c2)nc1 [Example 722, 4-{3-[3-(5-Ethoxypyrimidin-2-yl)benzyl]-4-oxopyridazin-1(4H)-yl}-2-fluoro-N-(2-hydroxyethyl)benzamide] | < 100 nM
Cn1cc(-n2ccc(=O)c(Cc3cccc(-c4ncc(-c5cscn5)cn4)c3)n2)cn1 [Example 422, 1-(1-methyl-1H-pyrazol-4-yl)-3-{3-[5-(1,3-thiazol-4-yl)pyrimidin-2-yl]benzyl}pyridazin-4(1H)-one] | < 100 nM
CCC(=O)Nc1cccc(Cc2nn(-c3cnn(C)c3)ccc2=O)c1 [Example 635, N-(3-{[1-(1-methyl-1H-pyrazol-4-yl)-4-oxo-1,4-dihydropyridazin-3-yl]methyl}phenyl)propanamide] | 100 to 1000 nM
Cn1cc(-n2ccc(=O)c(Cc3cccc(NC(=O)OCCn4cncn4)c3)n2)cn1 [Example 534, 2-(1H-1,2,4-triazol-1-yl)ethyl (3-{[1-(1-methyl-1H-pyrazol-4-yl)-4-oxo-1,4-dihydropyridazin-3-yl]methyl}phenyl)carbamate] | < 100 nM
C[C@H](Oc1cnc(-c2cccc(Cc3nn(-c4cnn(C)c4)ccc3=O)c2)nc1)[C@@H](C)O (single isomer, unassigned) [Example 377] | < 100 nM
CCn1cnc(-c2cccc(Cc3nn(-c4cnn(C)c4)ccc3=O)c2)n1 [Example 708, 3-[3-(1-ethyl-1H-1,2,4-triazol-3-yl)benzyl]-1-(1-methyl-1H-pyrazol-4-yl)pyridazin-4(1H)-one] | < 100 nM
CCOCc1cnc(-c2cccc(C(C)c3nn(-c4cnn(C)c4)ccc3=O)c2)nc1 (racemic) [Example 221, rac-3-(1-{3-[5-(ethoxymethyl)pyrimidin-2-yl]phenyl}ethyl)-1-(1-methyl-1H-pyrazol-4-yl)pyridazin-4(1H)-one] | < 100 nM
COCCOc1cnc(-c2cccc(Cc3nn(-c4cnn(C)c4F)cc(F)c3=O)c2)nc1 [Example 751, 5-Fluoro-1-(5-fluoro-1-methyl-1H-pyrazol-4-yl)-3-{3-[5-(2-methoxyethoxy)pyrimidin-2-yl]benzyl}pyridazin-4(1h)-one] | < 100 nM
COc1cnc(-c2cccc(C(C)c3nn(-c4cnn(C)c4)ccc3=O)c2)nc1 (single isomer, unassigned) [Example 204, 3-{(1R or S)-1-[3-(5-methoxypyrimidin-2-yl)phenyl]ethyl}-1-(1-methyl-1H-pyrazol-4-yl)pyridazin-4(1H)-one] | < 100 nM
COC(C)c1cnc(-c2cccc(Cc3nn(-c4cnn(C)c4)ccc3=O)c2)nc1 (racemic) [Example 166, rac-3-{3-[5-(1-methoxyethyl)pyrimidin-2-yl]benzyl}-1-(1-methyl-1H-pyrazol-4-yl)pyridazin-4(1H)-one] | 100 to 1000 nM
CN(C)C(=O)CCOC(=O)Nc1cccc(Cc2nn(-c3cnn(C)c3)ccc2=O)c1 [Example 545, 3-(dimethylamino)-3-oxopropyl (3-{[1-(1-methyl-1H-pyrazol-4-yl)-4-oxo-1,4-dihydropyridazin-3-yl]methyl}phenyl)carbamate] | < 100 nM
CCCOC(=O)Nc1cccc(Cc2nn(-c3ccc(Br)cc3)ccc2=O)c1 [Example 14, propyl (3-{[1-(4-bromophenyl)-4-oxo-1,4-dihydropyridazin-3-yl]methyl}phenyl)carbamate] | < 100 nM
CC(C)COC(=O)Nc1cccc(Cc2nn(-c3cnn(CC4CCOCC4)c3)ccc2=O)c1 [Example 102, 2-methylpropyl [3-({4-oxo-1-[1-(tetrahydro-2H-pyran-4-ylmethyl)-1H-pyrazol-4-yl]-1,4-dihydropyridazin-3-yl}methyl)phenyl]carbamate] | 100 to 1000 nM
Cn1cc(-n2ccc(=O)c(Cc3cccc(NC(=O)OCC(N)C(F)(F)F)c3)n2)cn1 (racemic) [Example 619, rac-2-amino-3,3,3-trifluoropropyl (3-{[1-(1-methyl-1H-pyrazol-4-yl)-4-oxo-1,4-dihydropyridazin-3-yl]methyl}phenyl)carbamate] | < 100 nM
COC(C)(C)COc1cnc(-c2cccc(C(C)c3nn(-c4ccc(F)c(F)c4)ccc3=O)c2)nc1 (single isomer, unassigned) [Example 251, 1-(3,4-difluorophenyl)-3-[(1S or R)-1-{3-[5-(2-methoxy-2-methylpropoxy)pyrimidin-2-yl]phenyl}ethyl]pyridazin-4(1H)-one] | < 100 nM
Cn1cc(-n2ccc(=O)c(Cc3cccc(NC(=O)OCC4COCCO4)c3)n2)cn1 (racemic) [Example 568, rac-1,4-dioxan-2-ylmethyl (3-{[1-(1-methyl-1H-pyrazol-4-yl)-4-oxo-1,4-dihydropyridazin-3-yl]methyl}phenyl)carbamate] | < 100 nM
